Results taken from US20260258044A1, “PIPERIDINYL-METHYL-PURINE AMINE FUMARIC ACID SALTS, CRYSTALLINE FORMS, AND THEIR USE IN TREATING MEDICAL DISEASES AND CONDITIONS” (K36 Therapeutics, Inc., priority 2022, published 2026).
Entries after “also recorded” stand apart in the source; their conditions may differ.

Tests used:
Assay type in all cases: physicochemical
[1] = water solubility of the crystalline solid; conditions: 37° C.
[2] = hygroscopicity by dynamic vapor sorption; conditions: transitioned from 2% to 95% relative humidity
Procedure: Dynamic vapor sorption was performed using a Q5000SA. The sample (5-15 mg) was loaded into a metallic quartz sample pan, suspended from a microbalance, and exposed to a humidified stream of nitrogen gas. Weight changes were relative to a matching empty reference pan opposite the sample, suspended from the microbalance. The sample was held for a minimum of 10 min at each humidity level and only progressed to the next humidity level if there was <0.002% change in weight between measurements (interval: 5 s) or 60 min had elapsed. The following program was used: • 1. Equilibration at 50% RH • 2. 50% to 2% RH (50%, 40%, 30%, 20%, 10%, and 2% RH) • 3. 2% to 95% RH (2%, 10%, 20%, 30%, 40%, 50%, 60%, 70%, 80%, 90%, and 95% RH) • 4. 95% to 2% RH (95%, 80%, 70%, 60%, 50%, 40%, 30%, 20%, 10%, and 2% RH) • 5. 2% to 50% RH (2%, 10%, 20%, 30%, 40%, and 50% RH).

[3] = accelerated stability study (HPLC and XRPD of recovered salts); conditions: for HPLC Purity (Area %) After Study / XRPD After Study: after one week at 75% relative humidity, 40° C.; for HPLC Purity (Area %) Before Study: before storage
Procedure: An accelerated stability study was conducted on crystalline Form 1 (prepared according to Procedure 2 of Example 1), Form 2, Form 3 (prepared according to Procedure 1 of Example 3), and Form 4 of (S)-1-((R)-3-amino-1-(4-((6-amino-9H-purin-9-yl)methyl)-6-(2,5-difluoro-4-methoxyphenyl) pyridin-3-yl)piperidin-3-yl)-2,2-difluoroethan-1-ol fumaric acid salt. Approximately 12 mg of each solid was placed into separate 4-mL vials, and then the vials were covered with a Kimwipe. The vials were stored for one week inside a stability chamber producing a relative humidity of 75% at 40° C.

## COc1cc(F)c(-c2cc(Cn3cnc4c(N)ncnc43)c(N3CCC[C@](N)([C@H](O)C(F)F)C3)cn2)cc1F.O=C(O)/C=C/C(=O)O [Form 3, (S)-1-((R)-3-amino-1-(4-((6-amino-9H-purin-9-yl)methyl)-6-(2,5-difluoro-4-methoxyphenyl)pyridin-3-yl)piperidin-3-yl)-2,2-difluoroethan-1-ol Fumaric Acid Salt]
[1]; after 30 minutes
  water solubility: 800 µg/mL
[1]; after 24 hours
  water solubility: 700 µg/mL
[2]
  increase in weight: 5.1%
  increase in weight as molar equivalents of water: approximately 1.8 molar equivalents
[3]
  HPLC Purity (Area %) After Study: 99.56 Area %
  XRPD After Study: Increased crystallinity; also recorded: Higher Crystallinity
  HPLC Purity (Area %) Before Study: 99.58 Area %

## COc1cc(F)c(-c2cc(Cn3cnc4c(N)ncnc43)c(N3CCC[C@](N)([C@H](O)C(F)F)C3)cn2)cc1F.O=C(O)/C=C/C(=O)O [Form 4, (S)-1-((R)-3-amino-1-(4-((6-amino-9H-purin-9-yl)methyl)-6-(2,5-difluoro-4-methoxyphenyl)pyridin-3-yl)piperidin-3-yl)-2,2-difluoroethan-1-ol Fumaric Acid Salt]
[1]; after 30 minutes
  water solubility: 700 µg/mL
[1]; after 24 hours
  water solubility: 600 µg/mL
[2]
  increase in weight: 5.5%
  increase in weight as molar equivalents of water: approximately 2.0 molar equivalents
[3]
  HPLC Purity (Area %) After Study: 99.59 Area %
  XRPD After Study: Conversion to Form 3
  HPLC Purity (Area %) Before Study: 99.56 Area %

## COc1cc(F)c(-c2cc(Cn3cnc4c(N)ncnc43)c(N3CCC[C@](N)([C@H](O)C(F)F)C3)cn2)cc1F.O=C(O)/C=C/C(=O)O [Form 2, (S)-1-((R)-3-amino-1-(4-((6-amino-9H-purin-9-yl)methyl)-6-(2,5-difluoro-4-methoxyphenyl)pyridin-3-yl)piperidin-3-yl)-2,2-difluoroethan-1-ol Fumaric Acid Salt]
[1]; after 30 minutes
  water solubility: 2200 µg/mL
[1]; after 24 hours
  water solubility: 1100 µg/mL
[3]
  HPLC Purity (Area %) After Study: 99.49 Area %
  XRPD After Study: Slight shifting of peaks at higher diffraction angles (2θ); also recorded: Slight Shifting of Certain
  HPLC Purity (Area %) Before Study: 99.51 Area %

## COc1cc(F)c(-c2cc(Cn3cnc4c(N)ncnc43)c(N3CCC[C@](N)([C@H](O)C(F)F)C3)cn2)cc1F.O=C(O)/C=C/C(=O)O [Form 1, (S)-1-((R)-3-amino-1-(4-((6-amino-9H-purin-9-yl)methyl)-6-(2,5-difluoro-4-methoxyphenyl)pyridin-3-yl)piperidin-3-yl)-2,2-difluoroethan-1-ol Fumaric Acid Salt]
[1]; after 30 minutes
  water solubility: 300 µg/mL
[1]; after 24 hours
  water solubility: 1400 µg/mL
[2]
  increase in weight: 1.5%
[3]
  HPLC Purity (Area %) After Study: 99.52 Area %
  XRPD After Study: No change; also recorded: Unchanged
  HPLC Purity (Area %) Before Study: 99.50 Area %
